Patent publication US20050165064A1, “Novel thiol derivative, process for producing the same and use thereof” (priority 2003, published 2005)
Where a name gives a salt, the structure may show the parent alone.

Biological target: Recombinant Human MMP-13 (Homo sapiens, UniProt P45452)
Experiment: MMP-13 inhibitory activity, fluorescent synthetic substrate method
Assay type: biochemical
Conditions: 8 nM APMA-activated enzyme, 10 μM substrate, 37° C., 1 hour
Method: The MMP-13 inhibitory activity was measured by a method using a fluorescent synthetic substrate. To a buffer solution for measurement (100 mM Tris-HCl, pH 7.4, 100 mM NaCl, 10 mM CaCl2) containing Recombinant Human MMP-13 (manufactured by Takeda Pharmaceuticals, Inc.) activated by APMA (1 mM) in a concentration of 8 nM, the compound dissolved in DMSO was added in a predetermined concentration. Subsequently, a fluorescent synthetic substrate (7-methoxycoumarin-4-yl)acetyl-Pro-Leu-Gly-Leu-(3-[2,4-dinitrophenyl]-L-2,3-diaminopropionyl)-Ala-Arg-NH2 was added thereto in a concentration of 10 μM to initiate the reaction. After incubation at 37° C. for 1 hour, a 500 mM acetate buffer (pH 3.0) was added to stop the reaction. The increase in the fluorescence intensity due to substrate decomposition was measured employing a CORONA MTP-32 plate reader under the condition of Ex/Em=340/400. The rate of inhibition of the enzymatic inhibitory activity was determined from the following equation: Rate of Inhibition (%)=100−(X−C)/(T−C)×100
T: Fluorescence intensity of the control with addition of enzyme and without addition of the compound
C: Fluorescence intensity of the control without addition of enzyme and without addition of the compound
X: Fluorescence intensity with addition of enzyme and with addition of the compound

**Q.** With O=C1C[C@@H](S)CN1Cc1ccc(Oc2ccc(F)cc2)nc1 [Example 2, (4R)-1-{[6-(4-fluorophenoxy)pyridin-3-yl]methyl}-4-mercaptopyrrolidin-2-one hydrochloride] as the compound, how does the inhibition at 0.003 µM (compound 3 nM, read-out: rate of inhibition for MMP-13 activity) read?
**A.** 63%

**Q.** How did the “rate of inhibition for MMP-13 activity” value (compound 1.5 nM) turn out when CS(=O)(=O)Nc1ccc(Oc2ccc(CN3C[C@H](S)CC3=O)cn2)cc1 [Example 15] was run?
**A.** 67%

**Q.** CCc1ccc(Oc2ccc(CN3C[C@H](S)CC3=O)cn2)cc1 [Example 12, (4R)-1-{[6-(4-ethylphenoxy)pyridin-3-yl]methyl}-4-mercaptopyrrolidin-2-one] was tested. Which inhibition at 0.0015 µM (compound 1.5 nM, read-out: rate of inhibition for MMP-13 activity) did it give?
**A.** 50%
